Patent US8853246B2 (Dow AgroSciences LLC, priority 2009, dated 2014)
Where two headings read alike, the source gives them in different places.

Key:
[1] = system: Cotton Aphid (Aphis Gossypii); assay: Insecticidal test for cotton aphid in foliar spray assay (col. APHIGO); assay type: in vivo; details: for pest or weed control at 200 ppm: Aphis gossypii, 72 h, read-out: APHIGO 200 ppm (Corrected % Control, rating)
Method: The compounds were tested against cotton aphid, green peach aphid, and sweet potato whitefly using procedures described in the following examples and reported in Table 2.
In each case of Table 2, the rating scale is as follows at 200 ppm.
Insecticidal Test for Cotton Aphid (Aphis Gossypii) in Foliar Spray Assay
Squash or cotton seedlings with fully expanded cotyledon leaves were trimmed to one cotyledon per plant and infested with cotton aphid (wingless adult and nymph) one day prior to chemical application. Each plant was examined before chemical application to ensure uniform infestation (ca. 30-70 aphids per plant). Compounds (2 mg) were dissolved in 2 mL of acetone/methanol (1:1) solvent, forming stock solutions of 1000 ppm. The stock solutions were diluted 5× with 0.025% Tween 20 in H2O to obtain a solution at 200 ppm. A hand-held Devilbiss aspirator type sprayer was used to apply the spray solutions until runoff to both sides of the squash cotyledon leaves. Four plants (4 replications) were used for each concentration of each compound. Reference plants (solvent check) were sprayed with the diluent only. Treated plants were held in a holding room for three days at approximately 25° C. and 40% RH before the number of live aphids on each plant was recorded. Insecticidal activity was measured by Corrected % Control using Abbott's correction formula and presented in Table 2 (see col. “APHIGO”): Corrected % Control=100*(X−Y)/X • where X=No. of live aphids on solvent check plants • Y=No. of live aphids on treated plants

[2] = system: Green Peach Aphid (Myzus Persicae); assay: Insecticidal test for green peach aphid in foliar spray assay (col. MYZUPE); assay type: in vivo; details: for pest or weed control at 200 ppm: Myzus persicae, 72 h, read-out: MYZUPE 200 ppm (Corrected % Control, rating)
How it was run: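 Cabbage seedlings with 2-3 true leaves, infested with 20-50 wingless adult and nymph aphids one day earlier, sprayed to runoff at 200 ppm (acetone/methanol stock diluted in 0.025% Tween 20), four pots per treatment. After 3 days at ~25 °C, 40% RH, live aphids counted; corrected % control versus solvent-sprayed plants.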

[3] = system: Sweetpotato Whitefly-Crawler (Bemisia Tabaci); assay: Insecticidal test for sweetpotato whitefly-crawler in foliar spray assay (col. BEMITA); assay type: in vivo; details: for pest or weed control at 200 ppm: Bemisia tabaci, read-out: BEMITA 200 ppm (Corrected % Control, rating)
How it was run: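 Cotton plants (one 3-5 cm true leaf) infested with whitefly eggs (100-300/plant), held 5-6 days at 82° F, 50% RH until crawlers developed. Sprayed to runoff at 200 ppm (acetone stock diluted in 0.025% Tween 20), four plants per treatment. Live nymphs counted after 8-9 days; % control by Abbott's correction versus solvent check.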

SMILES	pest or weed control at 200 ppm ([2]; Abbott's correction formula) [%]	pest or weed control at 200 ppm ([3]; Abbott's correction formula) [%]	melting point [°C]	further results
CSCCC(=O)N(C)c1cnc(-c2cccnc2)s1 [Compound 19, N-methyl-3-methylsulfanyl-N-(2-pyridin-3-yl-thiazol-5-yl)-propionamide]	–	–	–	pest or weed control at 200 ppm [1]: < 80%; pest or weed control at 200 ppm ([2]; green peach aphid): 80 to 100%; pest or weed control at 200 ppm ([3]; sweetpotato whitefly-crawler): < 80%
CCN(C(=O)C(C)CSC)c1sc(-c2cccnc2)nc1C (stereo not drawn) [Compound 210]	–	–	–	pest or weed control at 200 ppm [1]: 80 to 100%; pest or weed control at 200 ppm ([2]; green peach aphid): 80 to 100%; pest or weed control at 200 ppm ([3]; sweetpotato whitefly-crawler): 80 to 100%
CSCC(C)C(=O)N(C)c1sc(-c2cccnc2)nc1Cl (stereo not drawn) [Compound 227, N-(4-chloro-2-pyridin-3-yl-thiazol-5-yl)-2,N-dimethyl-3-methylsulfanyl-propionamide]	–	–	–	pest or weed control at 200 ppm [1]: 80 to 100%; pest or weed control at 200 ppm ([2]; green peach aphid): 80 to 100%; pest or weed control at 200 ppm ([3]; sweetpotato whitefly-crawler): 80 to 100%
CC(C[S+](C)[O-])C(=O)N(C)c1sc(-c2cccnc2)nc1Cl (stereo not drawn) [Compound 230]	–	–	–	pest or weed control at 200 ppm [1]: 80 to 100%; pest or weed control at 200 ppm ([2]; green peach aphid): 80 to 100%; pest or weed control at 200 ppm ([3]; sweetpotato whitefly-crawler): 80 to 100%
CCN(C(=O)C(C)C)c1sc(-c2cccnc2)nc1C [Compound 233]	–	–	–	pest or weed control at 200 ppm [1]: 80 to 100%; pest or weed control at 200 ppm ([2]; green peach aphid): 80 to 100%; pest or weed control at 200 ppm ([3]; sweetpotato whitefly-crawler): 80 to 100%
CCN(C(=O)C(C)C[S+](C)[O-])c1sc(-c2cccnc2)nc1C (stereo not drawn) [Compound 234]	–	–	–	pest or weed control at 200 ppm [1]: 80 to 100%; pest or weed control at 200 ppm ([2]; green peach aphid): 80 to 100%; pest or weed control at 200 ppm ([3]; sweetpotato whitefly-crawler): 80 to 100%
CCN(C(=O)C(C)CS(C)(=O)=O)c1sc(-c2cccnc2)nc1C (stereo not drawn) [Compound 235]	–	–	–	APHIGO 200 ppm (Corrected % Control, rating) [1]: A (80-100); MYZUPE 200 ppm (Corrected % Control, rating) ([2]; green peach aphid): A (80-100); BEMITA 200 ppm (Corrected % Control, rating) ([3]; sweetpotato whitefly-crawler): A (80-100)
CCN(C(=O)C(C)CSC)c1sc(-c2cncc(F)c2)nc1C (stereo not drawn) [Compound 240]	–	–	–	pest or weed control at 200 ppm [1]: 80 to 100%; pest or weed control at 200 ppm ([2]; green peach aphid): 80 to 100%; pest or weed control at 200 ppm ([3]; sweetpotato whitefly-crawler): 80 to 100%
CCN(C(=O)C(C)(C)CS(C)(=O)=O)c1sc(-c2cccnc2)nc1C [Compound 250]	–	–	–	pest or weed control at 200 ppm [1]: < 80%; pest or weed control at 200 ppm ([2]; green peach aphid): 80 to 100%; pest or weed control at 200 ppm ([3]; sweetpotato whitefly-crawler): < 80%
CN(C(=O)CCS(C)(=O)=O)c1sc(-c2ccc(F)nc2)nc1Cl [Compound 470]	80 to 100	< 80	42 to 46	–
CC(C[S+](C)[O-])C(=O)N(C)c1sc(-c2cnc(Cl)c(F)c2)nc1Cl (stereo not drawn) [Compound 474]	< 80	< 80	30 to 35	–
CC(CS(C)(=O)=O)C(=O)N(C)c1sc(-c2cnc(Cl)c(F)c2)nc1Cl (stereo not drawn) [Compound 475]	< 80	< 80	55 to 61	–
CN(C(=O)OC(C)(C)C)c1sc(-c2cncc(F)c2)nc1Cl [Compound 476]	80 to 100	< 80	119 to 120	–
CC(C)(C)OC(=O)Nc1sc(-c2cccnc2)nc1F [Compound 478]	80 to 100	< 80	184 to 186	–
CC(C)(C)OC(=O)Nc1sc(-c2cncc(F)c2)nc1I [Compound 481, tert-butyl 2-(5-fluoropyridin-3-yl)-4-iodothiazol-5-yl carbamate]	< 80	< 80	148 to 149	–
CSC(C)CC(=O)Nc1sc(-c2cccnc2)nc1Cl (stereo not drawn) [Compound 487]	80 to 100	80 to 100	120 to 125	–
CSC(C)(C)CC(=O)Nc1sc(-c2cccnc2)nc1Cl [Compound 488]	80 to 100	80 to 100	113 to 115	–
CCCC(C)(C)OC(=O)N(C)c1sc(-c2cccnc2)nc1C [Compound 491]	80 to 100	80 to 100	65 to 69	–
CSCCC(=O)N(C(=O)OC(C)(C)C)c1sc(-c2cncc(F)c2)nc1C#N [Compound 494]	< 80	< 80	105 to 106	–
CN(C(=O)OC(C)(C)C)c1sc(-c2cncc(F)c2)nc1I [Compound 497]	80 to 100	80 to 100	70 to 71	–

SMILES	pest or weed control at 200 ppm ([2]; Abbott's correction formula) [%]	pest or weed control at 200 ppm ([3]; Abbott's correction formula) [%]	melting point [°C]	further results
C=CC(=O)Nc1sc(-c2cncc(F)c2)nc1C#N [Compound 502]	< 80	< 80	231 to 232	–
CSCCC(=O)N(C)c1sc(-c2cncc(F)c2)nc1C#N [Compound 503]	< 80	< 80	97 to 98	–
CN(C(=O)CC[S+](C)[O-])c1sc(-c2cncnc2)nc1Cl (stereo not drawn) [Compound 510]	80 to 100	80 to 100	137 to 140	–
CSCCC(=O)N(C)c1sc(-c2cnccc2F)nc1Cl [Compound 515]	< 80	< 80	74 to 76	–
Cc1nc(-c2cncc(F)c2)sc1N(C)C(=S)NC1CC1 [Compound 519, 3-cyclopropyl-1-[2-(5-fluoro-pyridin-3-yl)-4-methyl-thiazol-5-yl]-1-methyl-thiourea]	80 to 100	< 80	117 to 119	–
C/C=C/C(=O)N(C)c1sc(-c2cccnc2)nc1Br [Compound 526]	80 to 100	80 to 100	121 to 125	–
CCN(C(=O)c1cscn1)c1sc(-c2cccnc2)nc1Cl [Compound 529]	80 to 100	< 80	82 to 86	–
CCN(C(=O)C1(C)CC1(Cl)Cl)c1sc(-c2cccnc2)nc1Cl (stereo not drawn) [Compound 536]	< 80	< 80	144 to 146	–
CCN(C(=O)C(C)Cn1nc(C)nc1C)c1sc(-c2cccnc2)nc1Cl (stereo not drawn) [Compound 541]	80 to 100	< 80	102 to 105	–
CCN(C(=O)c1cn(C)nc1C(F)(F)F)c1sc(-c2cccnc2)nc1Cl [Compound 547]	80 to 100	80 to 100	110 to 111	–
CCN(C(=O)c1sc(C)nc1C(F)(F)F)c1sc(-c2cccnc2)nc1Cl [Compound 548]	80 to 100	80 to 100	102 to 103	–
COc1ncc(-c2nc(Cl)c(N(C)C(=O)CCSC)s2)cc1F [Compound 551]	< 80	< 80	92 to 94	–
COc1ncc(-c2nc(Cl)c(N(C)C(=O)CC[S+](C)[O-])s2)cc1F (stereo not drawn) [Compound 558]	< 80	< 80	132 to 135	–
CCN(C(=O)c1cc(Cl)cc(Cl)c1)c1sc(-c2cccnc2)nc1Cl [Compound 564]	< 80	< 80	172 to 174	–
CSCCN(C(=O)OC(C)(C)C)c1sc(-c2cccnc2)nc1C [Compound 567]	80 to 100	< 80	63 to 68	–
CCN(C(=O)c1cocn1)c1sc(-c2cccnc2)nc1Cl [Compound 570]	80 to 100	< 80	118 to 120	–
CCN(C(=O)c1cnn(C)c1C(F)(F)F)c1sc(-c2cccnc2)nc1Cl [Compound 577]	80 to 100	< 80	115 to 117	–
Cc1nc(-c2cncc(F)c2)sc1N(C)C(=O)C1CCCN(C(=O)OC(C)(C)C)C1 (stereo not drawn) [Compound 580]	< 80	80 to 100	51 to 60	–
Cc1nc(-c2cncc(F)c2)sc1N(C)C(=O)C1CCCN(C(=S)NC2CC2)C1 (stereo not drawn) [Compound 585]	80 to 100	< 80	190 to 192	–
CSCCC(=O)Nc1sc(-c2cccnc2)nc1SC [Compound 589, 3-(methylthio)-N-(4-(methylthio)-2-(pyridin-3-yl)thiazol-5-yl)propanamide]	< 80	< 80	72 to 74	–
